Data reported in US12168802B2, “Methods of diagnosing and treating CD55 deficiency, hyperactivation of complement, angiopathic thrombosis and protein losing enteropathy (CHAPLE), a newly identified orphan disease” (The United States of America, as represented by the …, priority 2016, dated 2024).

What was measured:
[1] = tested on: HUVECs; test: Surface marker expression on HUVECs after TNFα or ATRA treatment (flow cytometry); type: cell-based, human
Description: FIGS. 9A, 9B, 9C, 9D, 9E, 9F, 9G, 9H, 9I, 9J, 9K, 9L, 9M, 9N, 90, and 9P. Changes in inflammatory cytokine production by CD55 deficient cells promote pro-thrombotic changes in endothelial cells. Cytokine secretion in control and patient T cells following restimulation with anti-CD3 for 48 hours. Cells were either left untreated or treated with a combination of C3aR and C5aR1 inhibitors, both at 10 μM final concentration. Each patient point represents the average of at least three independent experiments. Results are for TNFα, IL10, or IFNγ (A, B, and C respectively). Anaphylatoxin receptor surface expression on proliferating CD4^+ T cells grown in complete RPMI supplemented with 100 u/mL IL2, isotype: filled grey line, sample: solid black line (D). C3aR expression on proliferating CD4^+ T cells grown in serum free X-vivo15 media supplemented with 100 u/mL IL-2 w/wo 10 nM ATRA, grey and black line respectively, isotype: filled grey line (E). IL-10 production in control and patient T cells stimulated with anti-CD3 and stimulatory antibodies directed against the indicated costimulatory molecules (F). Flow plots of thrombomodulin (TM) and Tissue Factor (TF) expression on HUVECs cultured for 24 hours w/wo 10 ng/mL TNFα (G). Quantification of the change in TM and TF expression on HUVECs in response to 24 hour culture with increasing doses of TNFα (H). Flow plots of CD46 and CD59 expression on HUVECs cultured for 24 hours w/wo 10 ng/mL TNFα (I). Quantification of CD46, CD59, and CD55 expression on HUVECs in response to 24 hour culture with increasing doses of TNFα (J, K, and L, respectively). Quantification of the change in TM and TF expression on HUVECs in response to 48 hour culture with increasing doses of ATRA (M). Quantification of CD46, CD59, and CD55 expression on HUVECs in response to 48 hour culture with increasing doses of ATRA (N, O, and P, respectively). (not significant (n.s.), * p<0.05, **p<0.01, ***p<0.001).
Flow Cytometry. Adherent cells were treated with 0.05% trypsin EDTA to lift them from the surface followed by addition of 5% FBS to inactivate the trypsin. Suspension cells were collected from culture following mixture of the culture by repeat pipetting. Cells were washed and resuspended in FACS buffer (1% FBS, 0.05% sodium azide, and 5 mM EDTA in PBS) at 2×10^6 cells/mL. Staining or isotype antibodies were added at 1:200 final dilutions and incubated with cells at 4° C. for 30 minutes to 1 hour. Cells were then washed 3× and resuspended in FACS buffer with 1% PFA and analyzed by flow cytometry. Flow files were analyzed on FlowJo version 9.9 or above (FlowJo, LLC, Ashland, OR, USA).
HUVEC Experiments. Huvecs grown to 80% confluency, and before passage 8, were trypsonized and replated in 24 well tissue culture plates at 200,000 cells/well in Huvec media. Twenty-four hours later the indicated concentrations of TNFα, IL10, or all trans retinoic acid (ATRA) were added. Twenty-four hours later in the cast of TNFα or IL10 treatment or 48 hours later in the case of ATRA, cells were trypsonized and stained for the indicated surface markers following the described flow cytometry staining protocol. Cells were then immediately analyzed.

[2] = tested on: patient T cells; test: Anaphylatoxin ratios (C3a/C4a, C5a/C4a) in T cell culture supernatants; type: cell-based, human; settings: 24 hours incubation with 5% nHS, 100 μM Compstatin
Description: (§1) FIGS. 11A, 11B, and 11C. (A) C3d deposition on patient and control T cells were incubated in the presence or absence of 5% nHS with or without the addition of 100 μM Compstatin to block complement activation. (B) Ratio of C3a to C4a in culture supernatants after 24 hours of incubation with 5% nHS w/wo 100 μM compstatin. (C) Ratio of C5a to C4a in culture supernatants after 24 hours of incubation with 5% nHS or without 100 μM compstatin. ***=p<0.001.
Compstatin Inhibits C3d Deposition on Human Cells. FIG. 11A illustrates that Compstatin inhibits C3d deposition on human T cells. […] In FIG. 11C, the ratio of C5a to C4a in culture supernatants of patient T cells after 24 hours of incubation with 5% nHS and 100 μM Compstatin is decreased, as compared to patient T cells not treated with Compstatin. ***=p<0.001.

[3] = tested on: human T cells; test: C3d complement deposition on T cells incubated with normal human serum (flow cytometry); type: cell-based; settings: 5% nHS, 100 μM Compstatin
Description: as §1
Complement Deposition. T cells (Patient CD4^+ T cell blasts or Jurkat T cells) were collected and washed 3× in basal RPMI. Cells were then resuspended in basal media and rested for 2-3 hours at 37° C. to allow any deposited complement components to be cleared from the cell surface. Rested cells were then collected and resupended in basal RPMI or basal RPMI that had been adjusted to pH 6.5 (acidified media) to a final concentration of 1×10^6 cells/mL. Non-heat shocked pooled normal human serum was then added to cell suspension for the indicated amount of time. Human serum that had been heat shocked at 56° C. for 30 minutes was used as a negative control for complement activation. […] Cells were washed 3× and resuspended in FACS buffer (PBS, 1% FBS) and analyzed for C3d deposition by flow cytometry. […] Cells were then treated with trypsin/EDTA to release cells into suspension, washed, and then analyzed for C3d deposition as above. […]

[4] = tested on: human CD4+ T cells; test: Surface expression of C3aR and gut homing markers on CD4+ T cells grown with ATRA; type: cell-based; settings: w/wo 10 nM ATRA
Description: FIGS. 9A, 9B, 9C, 9D, 9E, 9F, 9G, 9H, 9I, 9J, 9K, 9L, 9M, 9N, 90, and 9P. Changes in inflammatory cytokine production by CD55 deficient cells promote pro-thrombotic changes in endothelial cells. Cytokine secretion in control and patient T cells following restimulation with anti-CD3 for 48 hours. Cells were either left untreated or treated with a combination of C3aR and C5aR1 inhibitors, both at 10 μM final concentration. Each patient point represents the average of at least three independent experiments. Results are for TNFα, IL10, or IFNγ (A, B, and C respectively). […] Quantification of the change in TM and TF expression on HUVECs in response to 24 hour culture with increasing doses of TNFα (H). […] Quantification of CD46, CD59, and CD55 expression on HUVECs in response to 24 hour culture with increasing doses of TNFα (J, K, and L, respectively). Quantification of the change in TM and TF expression on HUVECs in response to 48 hour culture with increasing doses of ATRA (M). Quantification of CD46, CD59, and CD55 expression on HUVECs in response to 48 hour culture with increasing doses of ATRA (N, O, and P, respectively). […]
Flow Cytometry. […] Cells were then washed 3× and resuspended in FACS buffer with 1% PFA and analyzed by flow cytometry. Flow files were analyzed on FlowJo version 9.9 or above (FlowJo, LLC, Ashland, OR, USA).

[5] = 48 hour culture with increasing doses of ATRA

## TNFα
[1]; 24 hour culture with TNFα
  CD46 expression on endothelial cells: decreased
  CD55 expression on endothelial cells: modestly increasing
  CD59 expression on endothelial cells: decreased
  thrombomodulin (TM) and tissue factor (TF) expression on endothelial cells: induces procoagulatory

## CC[C@H](C)[C@H](N)C(=O)N[C@H]1CSSC[C@@H](C(=O)N[C@H](C(N)=O)[C@@H](C)O)NC(=O)[C@H](CCCN=C(N)N)NC(=O)[C@H](Cc2cnc[nH]2)NC(=O)[C@H](Cc2cnc[nH]2)NC(=O)CNC(=O)[C@H](Cc2c[nH]c3ccccc23)NC(=O)[C@H](CC(=O)O)NC(=O)[C@H](CCC(N)=O)NC(=O)[C@H](C(C)C)NC(=O)[C@H](C(C)C)NC1=O [Compstatin]
[2]
  ratio of C3a to C4a in culture supernatants: considerably decreased
  ratio of C5a to C4a in culture supernatants: decreased
[3]
  C3d deposition on patient T cells: substantially inhibited

## CC1=C(/C=C/C(C)=C/C=C/C(C)=C/C(=O)O)C(C)(C)CCC1 [ATRA, all trans retinoic acid]
[1]; [5]
  CD46 expression: no change
  CD55 expression: increase
  CD59 expression: no change
  thrombomodulin expression: dose-dependent decrease
[4]; serum free X-vivo15 media
  surface expression of C3aR on T cells: depended on the presence
[4]; serum free conditions
  chemokine receptor CCR9 and integrin α4β7 (gut homing) on T cells: expressed
